Assay [1] has as its target T1, Apoptotic protease-activating factor 1 (Homo sapiens, UniProt O14727).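 Note: caspase-3 cleavage of fluorogenic Rh110 DEVD substrate downstream of apoptosome activation.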
T1 sequence (O14727 whole entry): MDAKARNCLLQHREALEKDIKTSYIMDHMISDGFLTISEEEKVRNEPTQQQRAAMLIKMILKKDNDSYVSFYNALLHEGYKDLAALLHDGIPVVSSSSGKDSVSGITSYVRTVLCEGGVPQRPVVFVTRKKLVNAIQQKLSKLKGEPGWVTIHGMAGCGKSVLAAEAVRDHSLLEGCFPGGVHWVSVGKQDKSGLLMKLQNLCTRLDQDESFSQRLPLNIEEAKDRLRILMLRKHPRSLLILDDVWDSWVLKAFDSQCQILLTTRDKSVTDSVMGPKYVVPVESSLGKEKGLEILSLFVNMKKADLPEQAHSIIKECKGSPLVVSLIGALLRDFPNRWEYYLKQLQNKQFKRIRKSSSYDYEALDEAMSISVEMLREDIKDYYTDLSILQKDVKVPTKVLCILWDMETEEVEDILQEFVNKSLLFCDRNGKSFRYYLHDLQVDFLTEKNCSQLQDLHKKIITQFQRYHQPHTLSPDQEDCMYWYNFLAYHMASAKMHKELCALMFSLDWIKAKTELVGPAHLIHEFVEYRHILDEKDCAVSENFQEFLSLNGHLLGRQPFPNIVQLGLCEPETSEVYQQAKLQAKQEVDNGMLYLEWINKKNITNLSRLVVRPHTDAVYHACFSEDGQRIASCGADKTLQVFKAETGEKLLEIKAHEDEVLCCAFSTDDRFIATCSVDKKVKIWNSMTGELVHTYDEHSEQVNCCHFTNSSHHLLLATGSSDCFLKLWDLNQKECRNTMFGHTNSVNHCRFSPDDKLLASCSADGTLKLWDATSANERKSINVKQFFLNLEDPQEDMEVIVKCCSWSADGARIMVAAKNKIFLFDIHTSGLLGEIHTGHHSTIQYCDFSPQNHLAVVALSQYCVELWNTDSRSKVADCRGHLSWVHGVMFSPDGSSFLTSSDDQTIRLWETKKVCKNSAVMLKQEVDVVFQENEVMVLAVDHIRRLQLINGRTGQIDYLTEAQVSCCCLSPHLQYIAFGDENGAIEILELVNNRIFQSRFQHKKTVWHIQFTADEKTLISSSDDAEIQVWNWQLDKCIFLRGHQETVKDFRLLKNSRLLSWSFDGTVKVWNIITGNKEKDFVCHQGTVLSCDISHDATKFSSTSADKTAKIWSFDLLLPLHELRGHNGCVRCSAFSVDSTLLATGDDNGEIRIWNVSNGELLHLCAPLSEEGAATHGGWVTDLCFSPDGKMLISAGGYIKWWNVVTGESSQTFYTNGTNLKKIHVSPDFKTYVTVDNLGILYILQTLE
Description: SAR analysis of small molecule Activators of Apaf-1 in a Fluorescent assay. It is filed as functional. The following applies: read-out: EC50_Mean.

Assay [2] deals with T2, High affinity choline transporter 1 (Homo sapiens, UniProt Q9GZV3).
T2 sequence (Q9GZV3 whole entry): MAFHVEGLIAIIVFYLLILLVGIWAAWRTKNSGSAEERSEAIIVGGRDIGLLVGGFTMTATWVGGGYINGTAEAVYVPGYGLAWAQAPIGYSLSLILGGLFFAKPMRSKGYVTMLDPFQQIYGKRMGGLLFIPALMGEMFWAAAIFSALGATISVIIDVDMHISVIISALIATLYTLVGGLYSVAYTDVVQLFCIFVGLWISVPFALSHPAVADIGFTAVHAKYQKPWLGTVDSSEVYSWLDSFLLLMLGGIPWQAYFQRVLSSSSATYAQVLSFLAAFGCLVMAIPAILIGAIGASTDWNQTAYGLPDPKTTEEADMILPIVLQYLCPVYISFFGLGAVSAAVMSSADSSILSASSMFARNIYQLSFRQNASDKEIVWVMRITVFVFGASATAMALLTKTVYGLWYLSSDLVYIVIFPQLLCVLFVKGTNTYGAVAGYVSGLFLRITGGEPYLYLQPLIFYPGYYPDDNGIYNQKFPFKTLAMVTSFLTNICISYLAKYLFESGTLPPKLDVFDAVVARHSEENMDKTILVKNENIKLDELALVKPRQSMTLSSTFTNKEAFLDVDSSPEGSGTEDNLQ
Description: human choline transporter blockers, potency – cell-based, 5-point CRC, membrane potential dye, dose response (AID 504840). The format is functional.

Assay [3] addresses T2, High affinity choline transporter 1. Nature of the assay: human choline transporter blockers, potency – cell-based, 10-point CRC, membrane potential dye, dose response (AID 588401).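 Note: membrane potential dye fluorescence of choline-evoked depolarization via CHT.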 The format is functional.
Assay [4] has as its target Ras and Rab interactor 1/Tyrosine-protein kinase ABL1 (Homo sapiens, UniProt P00519+Q13671). The format is functional.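 Note: biochemical TR-FRET dose-response test measuring inhibition of binding between Rin1 and Abl proteins.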
Assay [5] has as its target T3, Neuropeptides B/W receptor type 1 (Homo sapiens, UniProt P48145).
T3 sequence (P48145 whole entry): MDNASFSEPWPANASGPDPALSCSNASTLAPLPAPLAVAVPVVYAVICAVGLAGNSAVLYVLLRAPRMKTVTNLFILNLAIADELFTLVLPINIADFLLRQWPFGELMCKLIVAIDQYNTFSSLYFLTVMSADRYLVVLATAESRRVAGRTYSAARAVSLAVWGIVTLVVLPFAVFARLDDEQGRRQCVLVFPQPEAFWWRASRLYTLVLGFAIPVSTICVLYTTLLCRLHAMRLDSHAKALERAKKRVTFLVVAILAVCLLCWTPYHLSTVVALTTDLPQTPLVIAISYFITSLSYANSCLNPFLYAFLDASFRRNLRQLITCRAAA
Nature of the assay: human NPBW1 receptor blockade, IC50 – cell-based, fluorescence, dose response, set 5, late-stage follow-up (AID 588566). The format is functional.

The target of assay [6] is Melanin-concentrating hormone receptor 1 (Homo sapiens, UniProt Q99705). Description: Late-stage fluorescence-based counterscreen for antagonists of the G-protein coupled receptor 7 (GPR7): cell-based dose response assay to identify antagonists of the melanin-concentrating hormone receptor 1 (MCHR1) Set 5. The format is functional.
Melanin-concentrating hormone receptor 1, sequence (Q99705 whole entry): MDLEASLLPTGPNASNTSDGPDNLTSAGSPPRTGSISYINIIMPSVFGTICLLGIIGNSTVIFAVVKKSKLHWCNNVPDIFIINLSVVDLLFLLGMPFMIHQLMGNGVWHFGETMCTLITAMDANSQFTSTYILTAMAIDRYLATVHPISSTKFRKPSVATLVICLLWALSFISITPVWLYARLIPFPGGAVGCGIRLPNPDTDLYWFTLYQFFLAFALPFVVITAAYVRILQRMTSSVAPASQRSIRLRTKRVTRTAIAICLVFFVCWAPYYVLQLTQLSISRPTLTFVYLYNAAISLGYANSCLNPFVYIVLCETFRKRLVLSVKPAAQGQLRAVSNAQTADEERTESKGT
The target of assay [7] is T4, Galanin receptor type 3 (Homo sapiens, UniProt O60755).
T4 sequence (O60755 whole entry): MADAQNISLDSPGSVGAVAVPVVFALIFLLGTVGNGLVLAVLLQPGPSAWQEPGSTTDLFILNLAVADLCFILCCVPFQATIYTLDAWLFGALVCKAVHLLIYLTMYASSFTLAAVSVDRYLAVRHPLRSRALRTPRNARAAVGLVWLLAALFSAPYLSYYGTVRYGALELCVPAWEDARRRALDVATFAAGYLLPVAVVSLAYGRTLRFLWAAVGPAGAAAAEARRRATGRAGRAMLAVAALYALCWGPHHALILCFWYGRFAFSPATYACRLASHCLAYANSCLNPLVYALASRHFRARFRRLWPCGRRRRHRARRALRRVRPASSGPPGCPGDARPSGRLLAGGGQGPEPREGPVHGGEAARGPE
Description: Fluorescence-based cell-based primary high throughput dose response assay to identify antagonists of the Galanin Receptor 3 (GalR3). It is filed as functional.

A short description of assay [8]: cells. It is filed as functional, cell-based. The note with it: HEK-CNG.

Active and inactive are the calls of the source. Some results are limits rather than exact numbers.

A word on the IC50: it is the midpoint of a concentration-inhibition curve.

Ras and Rab interactor 1/Tyrosine-protein kinase ABL1, sequence (P00519 whole entry): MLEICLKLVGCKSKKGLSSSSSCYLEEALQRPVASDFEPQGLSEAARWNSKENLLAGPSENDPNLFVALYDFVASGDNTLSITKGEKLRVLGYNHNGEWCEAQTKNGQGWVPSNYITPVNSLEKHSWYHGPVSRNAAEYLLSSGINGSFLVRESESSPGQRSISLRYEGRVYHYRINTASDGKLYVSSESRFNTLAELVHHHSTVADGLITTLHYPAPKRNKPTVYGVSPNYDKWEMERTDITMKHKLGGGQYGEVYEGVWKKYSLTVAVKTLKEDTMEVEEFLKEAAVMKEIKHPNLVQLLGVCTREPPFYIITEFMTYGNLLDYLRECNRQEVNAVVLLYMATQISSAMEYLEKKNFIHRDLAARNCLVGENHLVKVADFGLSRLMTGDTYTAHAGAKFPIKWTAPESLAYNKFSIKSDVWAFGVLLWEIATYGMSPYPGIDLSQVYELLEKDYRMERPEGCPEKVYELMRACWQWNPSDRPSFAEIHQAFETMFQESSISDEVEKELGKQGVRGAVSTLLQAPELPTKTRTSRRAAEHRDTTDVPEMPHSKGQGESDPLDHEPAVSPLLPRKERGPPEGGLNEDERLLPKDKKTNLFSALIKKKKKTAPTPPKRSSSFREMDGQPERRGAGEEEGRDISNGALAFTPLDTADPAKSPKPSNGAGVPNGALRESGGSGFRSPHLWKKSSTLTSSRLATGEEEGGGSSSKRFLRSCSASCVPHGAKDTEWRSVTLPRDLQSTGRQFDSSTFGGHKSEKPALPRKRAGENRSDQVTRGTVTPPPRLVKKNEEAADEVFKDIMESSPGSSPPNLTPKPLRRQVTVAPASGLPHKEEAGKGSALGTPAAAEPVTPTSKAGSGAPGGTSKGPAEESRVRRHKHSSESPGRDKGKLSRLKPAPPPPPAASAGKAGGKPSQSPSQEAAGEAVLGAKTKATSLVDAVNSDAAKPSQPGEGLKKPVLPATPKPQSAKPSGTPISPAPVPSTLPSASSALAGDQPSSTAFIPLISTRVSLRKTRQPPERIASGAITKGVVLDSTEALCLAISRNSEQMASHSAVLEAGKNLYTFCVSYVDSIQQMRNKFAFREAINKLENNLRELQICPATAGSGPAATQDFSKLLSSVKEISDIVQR
Ras and Rab interactor 1/Tyrosine-protein kinase ABL1, sequence (Q13671 whole entry): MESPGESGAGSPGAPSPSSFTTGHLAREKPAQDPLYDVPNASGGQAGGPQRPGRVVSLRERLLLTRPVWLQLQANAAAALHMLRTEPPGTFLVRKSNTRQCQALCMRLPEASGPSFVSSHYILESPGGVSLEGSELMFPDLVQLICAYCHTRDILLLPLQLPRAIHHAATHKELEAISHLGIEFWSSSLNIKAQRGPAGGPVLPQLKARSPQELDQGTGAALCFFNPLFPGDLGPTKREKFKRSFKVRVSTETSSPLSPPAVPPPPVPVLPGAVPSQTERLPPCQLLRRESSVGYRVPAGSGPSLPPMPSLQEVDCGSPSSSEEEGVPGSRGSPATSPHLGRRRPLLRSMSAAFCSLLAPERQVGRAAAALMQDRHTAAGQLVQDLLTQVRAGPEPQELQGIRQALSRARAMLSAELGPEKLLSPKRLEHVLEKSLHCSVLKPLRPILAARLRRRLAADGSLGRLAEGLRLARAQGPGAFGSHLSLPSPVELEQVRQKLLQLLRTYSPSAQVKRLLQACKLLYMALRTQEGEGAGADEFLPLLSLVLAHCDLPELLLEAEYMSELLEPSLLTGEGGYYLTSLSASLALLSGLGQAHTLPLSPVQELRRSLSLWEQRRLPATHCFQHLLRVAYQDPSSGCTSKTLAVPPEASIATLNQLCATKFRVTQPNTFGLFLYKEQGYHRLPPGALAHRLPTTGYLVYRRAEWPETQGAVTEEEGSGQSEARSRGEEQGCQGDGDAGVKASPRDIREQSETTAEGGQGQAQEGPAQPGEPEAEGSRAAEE

Turning to `O=C(O)CC(CCc1ccccc1)NC(=O)c1ccco1` (configuration not stated), in assay [1], the EC50 is > 100 µM (inactive).
Turning to `Cc1cc(C)c(NC(=O)c2ccc[n+](Cc3ccc([N+](=O)[O-])cc3)c2)c(C)c1`, the IC50 was 3.67 µM (active) in assay [2] and 1.5 µM (active) in assay [3].
For `CC(OC(=O)c1ccccc1NCCO)C(=O)Nc1ccnn1C(C)C` (configuration not stated), the IC50 in assay [4] was 3.98 µM (active).
Turning to `O=C(C1CCCCN1Cc1c2ccccc2cc2ccccc12)N1CCN(c2ccc([N+](=O)[O-])cc2)CC1` (configuration not stated), the IC50 in assay [5] and in assay [6] was > 20 µM (inactive) each time.
Take `COc1ccc(C2=NN(c3nc(C(=O)O)cs3)C(O)(C(F)(F)F)C2)c(OC)c1` (configuration not stated): the results for the 50% inhibitory concentration (IC50) in assay [2], in assay [7] and in assay [3] were 7.18 µM (active), 10 µM (inactive) and 4.74 µM (active), respectively. The EC50 in assay [8] is > 29.9 µM (inactive).
Take `COc1cccc(Oc2c(Cl)cnn(C3c4ccccc4-c4ccccc43)c2=O)c1`: the IC50 in assay [5] was 9.69 µM (active); in assay [6] it was > 20 µM (inactive).

The values are drawn from ChEMBL document CHEMBL1201862, “PubChem BioAssay data set” (2004).
